The target in assay [1] is T1, human amino acid transporter LAT1 (Homo sapiens, UniProt Q01650). Briefly: Competitive antagonism test: incorporation of 14C-labeled leucine or phenylalanine into oocytes co-expressing human LAT1 and human 4F2hc in the presence of test substance. The class given is cell-based. Details: expressed in transfected cells. Conditions: 14C-labeled leucine 20 μM, test substance 2 mM, 30 minutes, choline chloride uptake solution.

In a further assay the test system is Human Daudi cells. Nature of the assay: Proliferation of Daudi cells with or without BCH. The class given is cell-based. As to conditions: 20 mM of BCH, 5 days, cell numbers counted. The procedure: (§1) T24 cells derived from human bladder cancer were incubated and maintained in an Eagle's minimal essential medium containing 10% of fetal bovine serum. Human Daudi cells were incubated and maintained in an RPMI medium containing 20% of fetal bovine serum. T24 cells or Daudil cells were incubated in a 24-well plate (800 cells/well) for 5 days in a medium with or without 20 mM of BCH and the cell numbers were counted.

Another assay relates to Mouse sarcoma 180 cells. Nature of the assay: Survival of ICR mouse after intraperitoneal transplantation of mouse sarcoma 180 cells. The class given is in vivo. Conditions: male ICR mouse, sarcoma 180 cells intraperitoneally transplanted, 300 mg/kg for ten days, observation for 19 days. As to the method: Mouse sarcoma 180 cells were intraperitoneally transplanted (1×10^6) to male ICR mouse and, from the next day of the transplantation, BCH which was a inhibitor for the amino acid transporter, D-Leu having a inhibiting effect on amino acid transporter and D-Ala having no inhibiting action thereon were administered at the dose of 300 mg/kg for ten days. After the transplantation, it was confirmed every day whether the mouse was dead or alive.

The next assay relates to CCRF-SB cells. Nature of the assay: Proliferation of CCRF-SB cells, effect of BCH. Type of assay: cell-based, human. As to conditions: expression of 4F2hc not detected.
The target in assay [2] is T1, human amino acid transporter LAT1. Briefly: Incorporation of 14C-labeled amino acids into oocytes co-expressing human LAT1 and human 4F2hc. Details: expressed in transfected cells. As to conditions: for incorporation in a cell in which human LAT1 and human 4F2hc are co-expressed: summary statement of the disclosure. Type of assay: cell-based.
For the next assay, the system named is P30/OHK cells. Briefly: Proliferation of P30/OHK cells, effect of BCH. As to conditions: expression of 4F2hc not detected. Type of assay: cell-based, human.
Assay [3] relates to T24 cells derived from human bladder cancer. Briefly: Inhibition of 14C-leucine incorporation by T24 cells by amino acids and similar substances. The class given is cell-based. Conditions: 14C-leucine 20 μM, 2 mM unlabeled compound.
Assay [4] shares this test system. Nature of the assay: Inhibiting mode of leucine incorporation by T24 cells by BCH, double reciprocal plots. Type of assay: cell-based. The procedure:
(§2) T24 cells derived from human bladder cancer were incubated and maintained in an Eagle's minimal essential medium containing 10% of fetal bovine serum. A test for the incorporation of amino acids into T24 cells was carried out by incubating the T24 cells on a 24-well plate and finished when the state became confluent. The amino acid incorporation test was started by removing the incubating solution and adding a Dulbecco's PBS (manufactured by Gibco) containing ^14C-amino acid and finished by removing it, cooling with ice and washing with a Dulbecco's PBS. After washing, the above was dissolved in 0.1N NaOH and the radioactivity was measured by a liquid scintillation counter.
Dependency of the ^14C-leucine incorporation by T24 cells on the concentration was measured in the absence of BCH, in the presence of 50 μM of BCH and in the presence of 100 μM of BCH and the inhibiting mode was investigated by means of double reciprocal plots.

For assay [5], the target named is T2, rat neutral amino acid transporter LAT1 (Rattus norvegicus, UniProt Q63016). Briefly: Inhibition of 14C-leucine incorporation into oocytes injected with rat LAT1 and rat 4F2hc cRNA by amino acids and similar substances. Type of assay: cell-based. Details: expressed in transfected cells; host or cells: oocytes (Xenopus laevis by the cited method of Kanai and Hediger) injected with rat LAT1 cRNA and rat 4F2hc cRNA. As to conditions: rat LAT1/rat 4F2hc oocytes; 14C-leucine 20 μM, 2 mM unlabeled compound, choline uptake solution.

Assay [6] concerns cells where both LAT1 and 4F2hc were strongly expressed. Nature of the assay: Proliferation of cells where both LAT1 and 4F2hc were strongly expressed, effect of BCH. Type of assay: cell-based, human. The procedure: as §1
Assay [7] has as its system rat liver cell line where LAT1 was highly expressed. Nature of the assay: Cell proliferation of cultured rat liver cell line, Cell Counting Kit-8. As to conditions: 20 mM added to William's medium, incubation for 48 hours. Type of assay: cell-based. As to the method: A rat liver cell line where LAT1 was highly expressed was incubated on a William's medium, 20 mM of D-leucine or BCH which suppressed the incorporation mediated by LAT1 were added to the medium and, by means of an incubation for 48 hours, cell numbers were investigated using a Cell Counting Kit-8 (manufactured by Dojindo Laboratories). The cell numbers were measured as an absorption at 450 nm (O.D. 450).
In general terms: Tetrazolium assays rely on reduction of a dye to a coloured formazan, in cell work by metabolically active cells.

The subject of assay [8] is T24 cells derived from human bladder cancer. Briefly: Proliferation of T24 cells with or without BCH. As to conditions: 20 mM of BCH, 5 days, cell numbers counted. Type of assay: cell-based. The procedure:
as §1

Assay [9] has the same test system. Nature of the assay: Michaelis-Menten kinetic test for the incorporation of leucine by T24 cells. Type of assay: cell-based. Conditions: leucine as substrate. The procedure:
as §2
A Michaelis-Menten kinetic test was carried out for the incorporation of leucine by T24 cells. The Michaelis-Menten kinetic test was conducted by investigating the changes in the incorporated rate of leucine by the difference in the concentration of the substrate leucine.

Assay [10] addresses T2, rat neutral amino acid transporter LAT1. Conditions: read-out: Km value; leucine as substrate; oocytes injected with rat LAT1 and rat 4F2hc cRNA.
In assay [11] the target is T1, human amino acid transporter LAT1. As to conditions: read-out: Michaelis constant (Km); leucine as substrate; Xenopus laevis oocytes co-expressing human LAT1 and human 4F2hc.
The target of assay [12] is T2, rat neutral amino acid transporter LAT1. Briefly: Incorporation of radiolabeled amino acids into oocytes injected with rat LAT1 and rat 4F2hc cRNA. The class given is cell-based. More on the design: expressed in transfected cells; host or cells: oocytes (Xenopus laevis by the cited method of Kanai and Hediger) injected with rat LAT1 cRNA and rat 4F2hc cRNA. As to conditions: 14C compounds as substrates. The procedure: Thus, the oocytes into which rat LAT1 gene cRNA, rat 4F2hc gene cRNA or rat LAT1 gene cRNA/rat 4F2hc gene cRNA was injected were incubated for 30 minutes in an uptake solution containing ^14C-leucine (50 μM) and incorporation of radioactivity into the oocytes was measured.
As a substrate however, various radiolabeled compounds were used in place of ^14C-leucine.

Entries after “also recorded” stand apart in the source; their conditions may differ.

By Ki is commonly meant the equilibrium dissociation constant of an inhibitor or competing ligand from its target. Read a high Ki as lower affinity. As a reminder, the Km is the substrate concentration at which the rate is half of its maximum.

T2 sequence (Q63016 whole entry): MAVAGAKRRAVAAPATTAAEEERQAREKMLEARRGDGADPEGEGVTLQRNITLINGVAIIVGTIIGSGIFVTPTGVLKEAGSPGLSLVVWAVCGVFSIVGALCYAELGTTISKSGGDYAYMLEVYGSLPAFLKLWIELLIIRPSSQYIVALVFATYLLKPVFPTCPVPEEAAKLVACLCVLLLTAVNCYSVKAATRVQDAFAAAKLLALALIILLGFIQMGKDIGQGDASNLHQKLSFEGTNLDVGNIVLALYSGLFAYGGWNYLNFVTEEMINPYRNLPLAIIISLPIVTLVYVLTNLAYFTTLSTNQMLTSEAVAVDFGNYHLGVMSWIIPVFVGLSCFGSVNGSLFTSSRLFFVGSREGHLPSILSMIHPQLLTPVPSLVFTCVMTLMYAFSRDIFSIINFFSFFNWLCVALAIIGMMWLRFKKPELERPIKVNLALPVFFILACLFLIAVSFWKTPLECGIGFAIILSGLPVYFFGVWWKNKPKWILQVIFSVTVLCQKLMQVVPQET
T2 sequence (Q794F9 whole entry partner): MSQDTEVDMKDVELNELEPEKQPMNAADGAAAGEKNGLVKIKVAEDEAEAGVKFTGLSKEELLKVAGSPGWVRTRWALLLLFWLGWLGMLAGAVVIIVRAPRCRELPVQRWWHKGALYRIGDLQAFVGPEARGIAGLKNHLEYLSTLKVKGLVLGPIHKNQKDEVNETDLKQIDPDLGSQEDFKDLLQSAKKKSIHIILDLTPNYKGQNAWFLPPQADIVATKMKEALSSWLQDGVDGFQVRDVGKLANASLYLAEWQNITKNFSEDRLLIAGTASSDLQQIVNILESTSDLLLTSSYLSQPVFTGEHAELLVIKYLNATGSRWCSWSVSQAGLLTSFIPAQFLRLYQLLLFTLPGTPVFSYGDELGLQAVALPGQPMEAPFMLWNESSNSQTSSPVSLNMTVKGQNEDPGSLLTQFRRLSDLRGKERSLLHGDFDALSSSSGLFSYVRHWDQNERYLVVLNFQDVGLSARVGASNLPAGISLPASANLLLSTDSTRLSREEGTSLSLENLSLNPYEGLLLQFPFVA
T1 sequence (Q01650 whole entry): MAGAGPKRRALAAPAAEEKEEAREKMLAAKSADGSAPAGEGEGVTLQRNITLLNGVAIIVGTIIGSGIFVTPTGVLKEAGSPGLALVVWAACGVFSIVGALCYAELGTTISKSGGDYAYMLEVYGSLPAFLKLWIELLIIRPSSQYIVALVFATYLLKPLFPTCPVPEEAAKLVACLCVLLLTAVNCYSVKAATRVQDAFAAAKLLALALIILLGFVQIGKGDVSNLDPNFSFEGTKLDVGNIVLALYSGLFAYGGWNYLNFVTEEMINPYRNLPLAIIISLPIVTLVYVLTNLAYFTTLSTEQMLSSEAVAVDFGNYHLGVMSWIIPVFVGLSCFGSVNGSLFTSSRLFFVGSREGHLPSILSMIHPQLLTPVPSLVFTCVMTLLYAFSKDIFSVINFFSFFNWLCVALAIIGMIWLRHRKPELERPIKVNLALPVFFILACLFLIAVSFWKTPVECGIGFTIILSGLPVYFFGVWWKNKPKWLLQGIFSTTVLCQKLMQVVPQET
T1 sequence (as listed by the source partner): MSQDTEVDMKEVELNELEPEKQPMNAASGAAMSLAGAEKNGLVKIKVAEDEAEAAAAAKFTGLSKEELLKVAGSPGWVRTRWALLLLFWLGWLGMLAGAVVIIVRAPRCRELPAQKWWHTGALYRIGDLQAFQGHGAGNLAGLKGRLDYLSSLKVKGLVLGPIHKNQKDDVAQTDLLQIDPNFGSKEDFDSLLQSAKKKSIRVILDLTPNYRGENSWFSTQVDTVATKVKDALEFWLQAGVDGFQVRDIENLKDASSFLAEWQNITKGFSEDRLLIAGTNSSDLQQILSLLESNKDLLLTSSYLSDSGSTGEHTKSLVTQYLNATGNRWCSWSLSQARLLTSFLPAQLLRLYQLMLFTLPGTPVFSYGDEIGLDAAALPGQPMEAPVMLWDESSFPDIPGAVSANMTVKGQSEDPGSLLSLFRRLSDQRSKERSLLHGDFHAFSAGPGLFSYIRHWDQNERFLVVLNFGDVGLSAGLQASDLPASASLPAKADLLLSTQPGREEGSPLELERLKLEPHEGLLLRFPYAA

For `NC1(C(=O)O)CC2CCC1C2` (centres unmarked) [BCH, 2-amino-2-norbornane-carboxylic acid], the “inhibition of incorporation of 14C-labeled leucine mediated by the human LAT1” value in assay [1] was “inhibited”. The “suppression of proliferation of Daudi cells” value in the assay on Human Daudi cells is “rarely showed a suppressing effect”. Moreover, the survival effect result with Mouse sarcoma 180 cells was “significant survival effect”. Further, the “effect on proliferation of CCRF-SB cells” value in the assay with CCRF-SB cells is reported as “weak”. In addition, the “incorporation in a cell in which human LAT1 and human 4F2hc are co-expressed” value in assay [2] is listed as “confirmed”. The “effect on proliferation of P30/OHK cells” value with P30/OHK cells is “weak”. Moreover, the “inhibition of incorporation of 14C-leucine by T24 cells” value in assay [3] was “strongly inhibited”. In assay [4] (0, 50 μM and 100 μM of BCH, double reciprocal plots), the “inhibiting mode of leucine incorporation” value is given as “competitive inhibition”. Besides, affinity in [4] (14C-leucine incorporation, 50 μM and 100 μM of BCH) was put at a Ki of 156 µM. The “inhibition of incorporation of 14C-leucine mediated by LAT1” value in assay [5] was “inhibited”. In addition, the “suppressing effect on proliferation” value in [6] is “strong suppressing effect”. In addition, the “cell numbers (O.D. 450) compared with control group” value in assay [7] is “a reduction in the cell numbers was noted”. The “suppression of proliferation of T24 cells” value in [8] was “highly suppressed”.
As for `CC(C)C[C@H](N)C(=O)O` [leucine], the “inhibition of incorporation of 14C-labeled leucine mediated by the human LAT1” value in assay [1] was “strongly inhibited”. The values for the Michaelis-Menten constant (Km) in assay [9], in assay [10] and in [11] were 100 µM, about 24 µM and about 21 µM, respectively. Further, the “Vmax value of leucine incorporation” value in assay [9] is given as 23,870 pmol/mg protein/minute. The “incorporation of 14C-labeled amino acid into oocytes” value in assay [2] (oocytes co-expressing human LAT1 and human 4F2hc, 14C-labeled substrate 50 μM, 30 minutes) is “large incorporation; also recorded: significantly incorporated”. Further, in [2], the “incorporation in a cell in which human LAT1 and human 4F2hc are co-expressed” value was “very strong incorporation”. In assay [3], the “inhibition of incorporation of 14C-leucine by T24 cells” value was “strong cis-inhibiting effect”. Further, in assay [5], the “inhibition of incorporation of 14C-leucine mediated by LAT1” value is listed as “strongly inhibited”. Moreover, the “incorporation of radiolabeled substrate into the oocytes” value in assay [12] is recorded as “big incorporation; also recorded: incorporation into the oocytes was noted”.

(Values after patent US7413895B2, “DNA encoding neutral amino acid transporter” (Japan Science and Technology Corporation, priority 1998, dated 2008).)
